The record followed here is patent US5547870A, “Oxalate decarboxylate” (Zeneca Limited, priority 1994, dated 1996).

Data set [1] has as its target T1, Collybia velutipes oxalate decarboxylase, purified native enzyme, peak A (eluting at pH 3.3 on chromatofocusing) (Flammulina velutipes, UniProt Q9UVK4).
T1 construct: chromatofocusing peak A (pH 3.3); about 55 kDa when deglycosylated
T1 sequence (Q9UVK4 21-447): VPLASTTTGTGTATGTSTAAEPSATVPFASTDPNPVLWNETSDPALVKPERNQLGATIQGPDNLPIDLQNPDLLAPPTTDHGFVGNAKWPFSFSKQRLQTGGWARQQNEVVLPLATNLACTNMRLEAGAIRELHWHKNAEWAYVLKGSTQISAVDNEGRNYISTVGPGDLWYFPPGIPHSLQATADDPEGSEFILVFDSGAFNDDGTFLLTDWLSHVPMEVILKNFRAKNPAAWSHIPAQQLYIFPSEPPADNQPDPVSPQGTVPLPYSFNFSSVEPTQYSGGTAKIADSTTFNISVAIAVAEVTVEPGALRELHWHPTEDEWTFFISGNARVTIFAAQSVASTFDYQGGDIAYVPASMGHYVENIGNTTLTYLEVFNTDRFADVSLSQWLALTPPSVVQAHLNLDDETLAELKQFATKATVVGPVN
Kind of data set: Oxalate decarboxylase assay: liberation of 14CO2 from [14C]-oxalic acid; Lineweaver-Burk plots. It is filed as biochemical, Collybia velutipes (strain S. A.T.C.C 13547). The protocol:
(§1) The oxalate decarboxylase activity was also determined by measuring the liberation of ^14 CO2 from [^14 C]-oxalic acid (Amersham, 4.1 mCi/mmol). The enzyme assay was carried out in small glass vails which contained 1 ml of the following reaction mixture: 0.2M potassium citrate, pH 3.0, 0.005M potassium oxalate, pH 3.0, 5.6 nmoles (0.0227 μCi) of (^14 C)-oxalic acid and 0.2 ml of enzyme solution. The tubes were preincubated for 5 min before the addition of enzyme. The tubes were sealed with rubber-stoppers and incubated at 37° C. for 30 min in a shaking water bath. The reaction was terminated by injection of 0.2 ml of 50% v/v trichloroacetic acid through the rubber caps and the tubes were shaken for additional 60 min to trap all the ^14 CO2 evolved in the 0.2 ml methylbenzethonium hydroxide(Sigma) placed in a plastic vial inside the glass tube. The plastic wells were withdrawn and the contents transferred to 5 ml of toluene based scintillation fluid and radioactivity determined in a liquid scintillation counter. Blanks tubes were set up in which the 0.2 ml of 50% TCA was added before the enzyme or the enzyme was omitted. In kinetic experiments, the values were corrected for the radioactivity obtained from the boiled denatured enzyme.
One unit was defined as the amount of enzyme releasing 1 μmole of ^14 CO2 per min at 37° C. under standard assay conditions. The overall assay efficiency was usually between 60-70%. Protein was determined by Lowry microassay method (Peterson, Anal. Biochem. 83:346 (1977)). Vmax and Km were determined by Lineweaver-Burk plot (Lineweaver and Burk, J. Am. Chem. Soc. 56:658-666 (1934)).

Substrate in data set [2]: O=C(O)C(=O)O
Described as above. It is filed as biochemical, Collybia velutipes (strain S. A.T.C.C 13547). Particulars: other: peak A enzyme, Lineweaver-Burk plot, 0.2M potassium citrate pH 3.0, 37° C. The protocol:
as §1, with “The reaction was terminated by injection of 0.2 ml of 50% v/v trichloroacetic acid through the rubber caps and the tubes were shaken for additional 60 min to trap all the ^14 CO2 evolved in the 0.2 ml methylbenzethonium hydroxide(Sigma) placed in a plastic vial inside the glass tube.” left out, “Blanks tubes were set up in which the 0.2 ml of 50% TCA was added before the enzyme or the enzyme was omitted.” left out
One unit was defined as the amount of enzyme releasing 1 μmole of ^14 CO2 per min at 37° C. under standard assay conditions. […] Protein was determined by Lowry microassay method (Peterson, Anal. Biochem. 83:346 (1977)). Vmax and Km were determined by Lineweaver-Burk plot (Lineweaver and Burk, J. Am. Chem. Soc. 56:658-666 (1934)).

Where a name gives a salt, the structure may show the parent alone.

On to `O=S(=O)(O)c1cc[c]([Hg][Cl])cc1` [p-chloromercuribenzenesulfonic acid], for which the “activity retained in the presence of sulfhydryl group reagent” value in data set [1] (50 mM reagent) was 95%.
By Vmax is commonly meant the top rate of the reaction or transport when substrate is in excess. In the case of `O=C(O)C(=O)O` [potassium oxalate], the Vmax in data set [1] (peak A enzyme, potassium oxalate as substrate, Lineweaver-Burk plot, pH 3.0, 37° C.) came to 166 µmol/min/mg.
With `O=C(O)CI` [iodoacetate], the activity at 50000 µM in data set [1] (read-out: activity retained in the presence of sulfhydryl group reagent) was 95%.
The Ki is the dissociation constant of the complex between target and ligand, obtained from inhibition or displacement. For the molecule `O=P(O)(O)O` [phosphate ions, phosphate], the Ki in data set [1] (competitive inhibition, 90 mM PO4^2- added to the reaction, read-out: Ki (phosphate ions)) was found to be 9 mM.

B1: Collybia velutipes oxalate decarboxylase, purified native enzyme, peak A (eluting at pH 3.3 on chromatofocusing) (Flammulina velutipes) (protein)
chain: T1 sequence (Q9UVK4 21-447)
notes: chromatofocusing peak A (pH 3.3); about 55 kDa when deglycosylated
Broadly, the Km is the concentration of substrate that gives half-maximal velocity. For the molecule B1, in data set [2], the Km worked out at 4.5 mM and the Vmax was found to be 166 µmol/min/mg.
